Data: paper PMC13267113 (npj Drug Discovery, 2025)
≈ marks a conversion by molar mass, not a printed value.

Tests used:
physchem = details: zebrafish embryo incubation medium, aqueous buffer, kinetic from dmso stock
HepG2 (human, liver) = test: MTT cytotoxicity HepG2; assay type: cell-based; details: 72 h, n = 3
Procedure: (§1) All cell types were cultivated at 37 °C with 5% CO2. HepG2, HEK293, HCT116, CHO-K1, HeLa-CCL-2 and Huh-7.5 were purchased from ATCC. The respective cell media (Gibco) were supplemented with 10% FBS (Gibco) before usage. Cells were used between passages #5 and #30. To obtain biological repeats, cells were split separately for at least two passages.
(§2) Cells were washed with PBS and 0.5 mL trypsin was added. Afterwards, cells were incubated for 5 min before adding 10 mL medium containing 10% FBS. Per well, 120 µL cell suspension (5 × 10^4 cells/mL) was seeded in transparent 96-well cell bind plates and incubated for 2 h (37 °C, 5% CO2). A dilution series (1:3) of test compounds was prepared in respective media containing 10% FBS and added (60 µL) to the prepared cell plate. Cells were incubated for a further 72 h (37 °C, 5% CO2). Next, 20 µL MTT (5 mg/mL in PBS) was added to each well and incubated for 2 h (37 °C, 5% CO2). The wells were emptied and 100 µL isopropanol/10 N HCl (1000:4) per well was added.
(§3) The plates were analyzed by measuring the absorbance at 570 nm (plate reader Infinite® 200 Pro, Tecan). After normalization of data to the respective solvent controls, the calculated percentage of growth inhibition was plotted using GraphPad Prism software (version 10.0.2).

HeLa (human, cervix) = test: MTT cytotoxicity HeLa; assay type: cell-based; details: 72 h, n = 3
Procedure: as §1, §2, §3

HCT116 (human, colon) = test: MTT cytotoxicity HCT116; assay type: cell-based; details: HCT-116, 72 h, n = 3
Procedure: as §1, §2, §3

[1] = system: U2OS (human, osteosarcoma); test: MTT cytotoxicity U2OS; assay type: cell-based; details: 72 h, n = 3
Procedure: as §2, §3

[2] = system: HCV pseudoparticle (HCVpp; JFH1 genotype 2a, Con1 genotype 1b) entry into Huh-7.5; test: HCVpp cell entry assay; details: Hepatitis C virus, GETYPE1B|GETYPE2A, Huh7.5, 72 h, read-out: concentration of 50% entry inhibition
HEK293 (human, kidney) = test: MTT cytotoxicity HEK293; assay type: cell-based; details: HEK293, MTT, 72 h, n = 3, read-out: IC50 HEK293 (human, kidney)
Procedure: as §1, §2, §3

[3] = Metabolic stability in mouse liver microsomes; assay type: in vitro ADME; details: pooled mouse liver microsomes, 0.5 mg/mL microsomes, NADPH
Procedure: The metabolic stability of testosterone, verapamil and ketoconazole was determined in parallel to confirm the enzymatic activity of mouse liver microsomes. For combination experiments, cobicistat was added to the incubation mixture together with test compounds. […] Concentration of the remaining test compound at the different time points was analyzed by HPLC-MS/MS (Vanquish Flex coupled to a TSQ Altis Plus, Thermo Fisher, Dreieich, Germany) and used to determine half-life (t1/2).

U-2 OS cells = test: Mitochondrial superoxide formation (MitoSOX Red); assay type: cell-based, human; details: n = 6
Procedure: CYS was tested for its potential to induce oxidative stress in U-2 OS cells. Therefore, 120 µL of a cell suspension in McCoy’s (+10% FBS) containing 5 × 10^4 cells/mL were seeded into black 96-well imaging plate (BD Falcon). The plates were incubated for two days (37 °C, 5% CO2) until the cells reached approximately 70% confluence. Subsequently, the cells were washed with HBSS buffer, prior to adding CYS (20 µM) and the ROS inducer menadione (50 µM) as positive control, along with the staining solution (HBSS, calcium, magnesium, 5 µM MitoSOX red and 10 µg/mL Hoechst (Thermo)). To check for ROS protective properties, menadione (50 µM) was added directly to the staining solution. […] Afterwards, the cells were washed twice with HBSS. The cells were imaged using an automated fluorescence microscope (Celldiscoverer 7, Zeiss) (excitation: […]) to analyze the fluorescence intensity of the superoxide tracker MitoSOX red. The experiment was carried out with six replicates per condition. Quantification was done by high-content image analysis using the ZEN software (version 3.4, blue edition, Zeiss). Data presentation was done using GraphPad Prism (version 10.0.3) with ordinary one-way ANOVA including multiple comparisons to the control group for statistical analysis of the sample without ROS induction via menadione in the staining solution. Multiple unpaired t test was used to compare samples for ROS protective properties, which were incubated with menadione in the staining solution.

[4] = Metabolic stability in mouse hepatocytes; assay type: in vitro ADME
Procedure: For the evaluation of combined phase I and phase II metabolic stability, the compound (1 μM) was incubated with 0.25 × 10^6 cells/mL of pooled mouse hepatocytes (Xenotech, Kansas City, USA). Cells were thawed in Leibovitz’s L-15 medium without phenol red (ThermoFisher Scientific, Waltham, USA). Briefly, cells were transferred into 50 mL of medium, followed by centrifugation at 55 g for 6 min. Supernatant was discarded, and the cell count was determined after gently resuspending the cell pellet in 1mL of medium. Hepatocytes were diluted to 0.5 × 10^6 cells/mL and incubated at 37 °C, 700 rpm for 10 min, to achieve the desired final cell count after addition of an equal volume of test compounds in medium, leading to a final test concentration of 1 µM at 1% DMSO. […] For the determination of metabolism in the presence of cobicistat, this drug was added together with test compounds in the desired concentration range. The metabolic stability of testosterone, verapamil, ketoconazole and 7-hydroxycoumarine were determined in parallel to confirm the enzymatic activity of mouse hepatocytes. […] Concentration of the remaining test compound at the different time points was analyzed by HPLC-MS/MS (Vanquish Flex coupled to a TSQ Altis Plus, Thermo Fisher, Dreieich, Germany) and used to determine half-life (t1/2). Intrinsic clearance was calculated as follows:2 CLintµL/min×10^6cells=Incubation volumeµL×ln(2)/Cells in incubation mixture[10^6]×t1/2
For metabolite identification studies, test compounds were incubated at 10 µM final concentration and samples were analyzed using HPLC-HRMS (Ultimate 3000 coupled to a Q Exactive Focus, Thermo Fisher, Dreieich, Germany). […] Blank samples using DMSO were run in parallel for background subtraction. Sample processing for metabolite identification was performed using Compound Discoverer 3.2 (Thermo Fisher, Dreieich, Germany). Metabolites were identified based on mass shifts and feasibility of the metabolic reaction, also in view of MS peak intensities over time.

[5] = target: T1, human DNA topoisomerase IIα (TOP2A) (Homo sapiens, UniProt P11388); test: human topoisomerase II alpha decatenation assay; assay type: biochemical; details: n = 3, read-out: IC50 against TOP2A
T1 construct: purchased Inspiralis
T1 sequence (P11388 whole entry): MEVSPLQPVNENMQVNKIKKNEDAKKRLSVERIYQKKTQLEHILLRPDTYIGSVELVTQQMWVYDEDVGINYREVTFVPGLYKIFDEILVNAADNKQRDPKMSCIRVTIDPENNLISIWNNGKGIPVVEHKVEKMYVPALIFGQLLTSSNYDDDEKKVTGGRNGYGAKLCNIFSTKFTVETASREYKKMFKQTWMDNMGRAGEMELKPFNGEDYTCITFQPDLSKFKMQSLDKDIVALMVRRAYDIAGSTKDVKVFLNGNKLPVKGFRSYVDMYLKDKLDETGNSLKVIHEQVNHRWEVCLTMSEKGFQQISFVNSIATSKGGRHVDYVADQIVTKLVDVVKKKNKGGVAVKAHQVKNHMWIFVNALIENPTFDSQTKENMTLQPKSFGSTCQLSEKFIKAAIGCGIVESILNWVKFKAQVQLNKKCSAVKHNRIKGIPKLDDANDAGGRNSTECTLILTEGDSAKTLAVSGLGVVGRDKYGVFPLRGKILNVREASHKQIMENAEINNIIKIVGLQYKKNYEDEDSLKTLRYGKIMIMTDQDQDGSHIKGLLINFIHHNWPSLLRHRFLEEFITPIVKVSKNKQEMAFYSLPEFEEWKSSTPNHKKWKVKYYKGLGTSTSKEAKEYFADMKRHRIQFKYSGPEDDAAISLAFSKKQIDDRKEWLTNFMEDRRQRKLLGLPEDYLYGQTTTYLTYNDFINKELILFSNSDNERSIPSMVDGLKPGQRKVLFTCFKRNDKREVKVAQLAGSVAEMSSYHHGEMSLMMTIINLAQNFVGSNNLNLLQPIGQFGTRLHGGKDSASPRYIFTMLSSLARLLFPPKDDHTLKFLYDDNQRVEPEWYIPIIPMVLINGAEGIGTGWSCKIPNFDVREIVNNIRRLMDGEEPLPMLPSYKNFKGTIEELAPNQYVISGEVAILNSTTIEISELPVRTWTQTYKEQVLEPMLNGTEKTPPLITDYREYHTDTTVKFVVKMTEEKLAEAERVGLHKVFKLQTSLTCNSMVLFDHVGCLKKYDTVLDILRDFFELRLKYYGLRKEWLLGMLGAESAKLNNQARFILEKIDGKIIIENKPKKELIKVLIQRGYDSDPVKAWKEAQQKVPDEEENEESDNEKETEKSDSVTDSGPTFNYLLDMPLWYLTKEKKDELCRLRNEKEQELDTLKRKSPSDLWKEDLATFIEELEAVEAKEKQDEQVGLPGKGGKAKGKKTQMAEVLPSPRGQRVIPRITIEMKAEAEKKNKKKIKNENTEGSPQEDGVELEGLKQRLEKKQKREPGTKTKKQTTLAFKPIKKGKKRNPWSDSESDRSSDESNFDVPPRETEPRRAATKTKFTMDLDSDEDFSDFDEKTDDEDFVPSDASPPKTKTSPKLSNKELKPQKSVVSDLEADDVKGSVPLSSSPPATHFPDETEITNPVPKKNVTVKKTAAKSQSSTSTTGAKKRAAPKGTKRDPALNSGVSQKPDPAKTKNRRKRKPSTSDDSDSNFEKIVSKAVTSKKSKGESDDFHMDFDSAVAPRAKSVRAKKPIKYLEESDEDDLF
Procedure: Inhibition of topoisomerase activity was examined using the human topoisomerase II alpha decatenation assay kit (Inspiralis) as indicated by the manufacturer. Briefly, a compound dilution series was prepared in DMSO. Water, dilution buffer, assay buffer, plasmid and enzyme were mixed with the compound solution and incubated at 37 °C for 30 min. A positive control (100% activity) was prepared without the compound, and a negative control (0% activity) was prepared without the compound and the enzyme. The reaction was stopped by adding gSTEB-buffer and chloroform/isoamylalcohol (24:1 v/v). The samples were vortexed and centrifuged before running gel electrophoresis. The gel was stained with ethidium bromide and imaged using a Fusion Fx gel imager (Vilber Lourmat). Subsequent analysis was done using ImageJ and GraphPad Prism (Version 10.0.2).

Mouse plasma stability = assay type: in vitro ADME; details: read-out: Mouse plasma t1/2
[6] = Mouse plasma protein binding; assay type: in vitro ADME; details: read-out: Mouse PPB (converted)
SCARB1 = system: SCARB1; design: method as in PMID 19815817; details: previous in vivo mouse studies; cited from earlier work
[7] = design: method as in PMID 26437376, PMID 24041792; details: cited from earlier work

| SMILES | solubility (physchem) [µM] | IC50 (HepG2 (human, liver)) [µM] | IC50 (HeLa (human, cervix)) [µM] | IC50 (HCT116 (human, colon)) [µM] | IC50 [1] [µM] | IC50 [2] [µM] | IC50 (HEK293 (human, kidney)) [µM] | microsomal CLint at 1 μM ([3]; read-out: MLM Clint) [µL/min/mg] | half-life at 1 µM ([3]; read-out: MLM t1/2) [h] | basal superoxide radical levels vs DMSO control (U-2 OS cells; 20 µM, MitoSOX Red, no menadione) | menadione-induced superoxide formation on co-treatment (U-2 OS cells; CYS 20 µM + menadione 50 µM) | major metabolic pathways ([4]; metabolite identification, 10 µM, mouse hepatocytes) | hepatocyte CLint at 1 µM ([4]; mouse, pooled mouse hepatocytes, 1 μM, 0.25 × 10^6 cells/mL) [µL/min/1e6 cells] | half-life at 1 µM ([4]; mouse, pooled mouse hepatocytes, 1 μM, 0.25 × 10^6 cells/mL, read-out: Mouse Hepatocytes t1/2) [h] | IC50 [5] [µM] | half-life (Mouse plasma stability) [h] | fraction unbound [6] | effect of SCARB1 suppression in mice (SCARB1) | safety in humans [7] |
| --- | --- | --- | --- | --- | --- | --- | --- | --- | --- | --- | --- | --- | --- | --- | --- | --- | --- | --- | --- |
| C=CC1CC1(NC(=O)C12CC(NC(=O)c3ccc(C#N)cc3)(C1)C2)C(=O)Nc1ccc(C(=O)Nc2ccc(C(=O)Nc3ccc(C(=O)O)cc3)c(O)c2OC(C)C)cc1 (stereo not shown) [Cysto-180] | 200 (≈ 159 µg/mL) | > 20 | > 37 | > 20 | > 20 | ~3.3 | > 20 | < 11.6 | > 2 | decrease of superoxide radical levels | no significant increase of superoxide | amide bond hydrolysis and glucuronidation | 26 | 0.683 ± 0.267 | 12.2 ± 0.63 | > 4 | 0.041 | – | – |
| COc1c(NC(=O)C(=O)c2ccc(OCCN3CCOCC3)c3ccccc23)cc(C(C)(C)C)cc1NS(C)(=O)=O [ITX5061] | – | – | – | – | – | – | – | – | – | – | – | – | – | – | – | – | – | increased beneficial HDL cholesterol levels and partially reduced atherosclerotic lesions | safety in humans has been demonstrated |
